Several values for one entry are separate records, joined by “and”; a condition that tells them apart may be missing. Identical values can stand only once.
Columns and labels:
[1] = biological target: ABL1 (Homo sapiens, UniProt P00519)
[2] = system: DD2; parameters: method as in F.J. Gamo et al., Nature 2010; settings: downloaded from ChEMBL, ref F.J. Gamo et al., Nature 2010; cited from earlier work
[3] = biological target: CDK6 (Homo sapiens, UniProt Q00534); assay: biochemical
[4] = biological target: T1, BMPR2 (Homo sapiens, UniProt Q13873); assay: biochemical
T1 sequence (Q13873 1-1038): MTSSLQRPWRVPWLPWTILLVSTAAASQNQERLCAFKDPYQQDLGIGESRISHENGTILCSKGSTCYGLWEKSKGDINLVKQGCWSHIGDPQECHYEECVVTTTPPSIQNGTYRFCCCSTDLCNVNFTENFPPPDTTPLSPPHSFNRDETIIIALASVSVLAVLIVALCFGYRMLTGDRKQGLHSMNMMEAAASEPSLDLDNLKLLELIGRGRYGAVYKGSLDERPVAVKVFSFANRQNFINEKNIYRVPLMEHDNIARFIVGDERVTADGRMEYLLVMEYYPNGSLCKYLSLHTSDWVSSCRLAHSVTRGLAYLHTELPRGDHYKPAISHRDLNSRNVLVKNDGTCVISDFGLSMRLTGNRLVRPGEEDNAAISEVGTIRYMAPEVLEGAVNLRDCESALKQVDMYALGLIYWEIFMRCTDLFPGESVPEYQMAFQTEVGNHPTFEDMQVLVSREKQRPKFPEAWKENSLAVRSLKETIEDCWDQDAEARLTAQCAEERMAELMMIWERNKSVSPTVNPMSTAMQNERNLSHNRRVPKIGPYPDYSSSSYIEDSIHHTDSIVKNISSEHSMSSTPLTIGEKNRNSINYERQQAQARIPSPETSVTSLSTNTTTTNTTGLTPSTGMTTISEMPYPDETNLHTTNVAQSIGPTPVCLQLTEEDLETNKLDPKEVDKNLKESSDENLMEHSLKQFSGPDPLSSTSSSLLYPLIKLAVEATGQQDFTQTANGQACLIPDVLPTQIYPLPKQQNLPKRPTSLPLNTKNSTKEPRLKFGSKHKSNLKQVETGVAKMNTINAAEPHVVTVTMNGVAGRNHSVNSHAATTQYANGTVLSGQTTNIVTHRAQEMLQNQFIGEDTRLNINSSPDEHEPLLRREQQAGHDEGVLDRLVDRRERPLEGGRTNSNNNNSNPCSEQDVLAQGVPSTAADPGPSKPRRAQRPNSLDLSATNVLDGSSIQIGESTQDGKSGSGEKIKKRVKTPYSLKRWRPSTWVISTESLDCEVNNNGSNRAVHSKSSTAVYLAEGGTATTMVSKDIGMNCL

[5] = biological target: RPS6KA3 (Homo sapiens, UniProt P51812); assay: biochemical
Chain of RPS6KA3 (P51812 whole entry): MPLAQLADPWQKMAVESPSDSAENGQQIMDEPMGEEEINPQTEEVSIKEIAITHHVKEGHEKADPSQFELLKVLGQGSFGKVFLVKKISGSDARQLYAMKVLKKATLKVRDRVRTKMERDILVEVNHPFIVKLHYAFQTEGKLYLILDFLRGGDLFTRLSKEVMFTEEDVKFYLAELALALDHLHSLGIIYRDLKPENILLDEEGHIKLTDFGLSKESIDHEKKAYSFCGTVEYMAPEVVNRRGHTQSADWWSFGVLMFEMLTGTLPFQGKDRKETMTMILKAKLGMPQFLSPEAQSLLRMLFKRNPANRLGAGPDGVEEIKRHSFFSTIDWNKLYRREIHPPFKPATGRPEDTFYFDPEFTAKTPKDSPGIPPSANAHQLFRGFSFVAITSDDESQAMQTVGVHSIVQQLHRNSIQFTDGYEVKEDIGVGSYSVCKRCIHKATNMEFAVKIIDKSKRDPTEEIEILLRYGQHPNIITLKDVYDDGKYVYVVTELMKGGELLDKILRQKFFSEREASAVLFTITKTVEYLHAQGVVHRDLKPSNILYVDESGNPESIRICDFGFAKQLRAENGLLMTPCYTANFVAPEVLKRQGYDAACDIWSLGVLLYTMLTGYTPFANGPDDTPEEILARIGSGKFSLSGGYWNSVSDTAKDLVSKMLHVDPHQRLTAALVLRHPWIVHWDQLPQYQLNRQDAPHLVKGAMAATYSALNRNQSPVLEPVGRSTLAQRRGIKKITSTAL

[6] = biological target: RPS6KA1 (Homo sapiens, UniProt Q15418); assay: biochemical
Chain of RPS6KA1 (Q15418 whole entry): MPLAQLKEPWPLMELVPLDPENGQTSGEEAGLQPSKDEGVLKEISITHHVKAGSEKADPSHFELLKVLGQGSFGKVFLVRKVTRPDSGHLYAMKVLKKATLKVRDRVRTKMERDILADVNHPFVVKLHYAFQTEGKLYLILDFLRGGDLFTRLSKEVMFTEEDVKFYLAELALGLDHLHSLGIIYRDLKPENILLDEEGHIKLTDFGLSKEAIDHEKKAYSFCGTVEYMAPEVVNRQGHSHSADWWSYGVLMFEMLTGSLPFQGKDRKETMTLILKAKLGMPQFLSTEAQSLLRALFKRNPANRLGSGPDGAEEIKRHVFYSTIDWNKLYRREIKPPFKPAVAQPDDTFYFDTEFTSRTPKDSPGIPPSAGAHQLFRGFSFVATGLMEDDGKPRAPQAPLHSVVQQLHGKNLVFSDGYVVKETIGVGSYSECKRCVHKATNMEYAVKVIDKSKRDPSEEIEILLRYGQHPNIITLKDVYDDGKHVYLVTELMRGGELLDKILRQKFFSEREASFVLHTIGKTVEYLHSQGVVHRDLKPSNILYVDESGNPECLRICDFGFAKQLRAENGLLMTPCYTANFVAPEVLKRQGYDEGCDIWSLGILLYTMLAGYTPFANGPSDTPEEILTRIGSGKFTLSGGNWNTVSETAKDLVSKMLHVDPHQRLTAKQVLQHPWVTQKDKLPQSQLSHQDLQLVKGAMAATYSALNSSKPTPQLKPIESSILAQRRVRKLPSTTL

[7] = biological target: NEK6 (Homo sapiens, UniProt Q9HC98); assay: biochemical
Chain of NEK6 (Q9HC98 whole entry): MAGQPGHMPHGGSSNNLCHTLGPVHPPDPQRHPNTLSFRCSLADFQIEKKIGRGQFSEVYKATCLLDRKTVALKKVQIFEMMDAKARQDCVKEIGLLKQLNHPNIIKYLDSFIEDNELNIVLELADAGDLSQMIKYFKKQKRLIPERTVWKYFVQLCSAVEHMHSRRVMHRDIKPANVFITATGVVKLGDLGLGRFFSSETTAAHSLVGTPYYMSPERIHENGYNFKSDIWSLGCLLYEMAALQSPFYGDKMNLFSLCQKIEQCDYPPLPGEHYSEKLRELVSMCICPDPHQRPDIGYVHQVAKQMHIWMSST

[8] = biological target: T2, PIP4K2C (Homo sapiens, UniProt Q8TBX8); assay: biochemical
T2 sequence (Q8TBX8 1-421): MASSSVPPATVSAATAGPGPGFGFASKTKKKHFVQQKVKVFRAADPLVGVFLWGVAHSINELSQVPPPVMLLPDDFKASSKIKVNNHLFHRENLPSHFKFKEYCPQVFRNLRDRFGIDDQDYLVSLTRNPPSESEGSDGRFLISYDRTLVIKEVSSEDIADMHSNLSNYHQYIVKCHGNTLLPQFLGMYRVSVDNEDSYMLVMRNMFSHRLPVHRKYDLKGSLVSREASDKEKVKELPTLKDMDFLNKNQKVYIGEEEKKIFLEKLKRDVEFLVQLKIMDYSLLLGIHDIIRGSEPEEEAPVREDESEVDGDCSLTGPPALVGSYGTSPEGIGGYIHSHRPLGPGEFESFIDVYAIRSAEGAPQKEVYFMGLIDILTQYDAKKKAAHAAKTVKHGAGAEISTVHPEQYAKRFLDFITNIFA

[9] = biological target: ERN1 (Homo sapiens, UniProt O75460); assay: biochemical
[10] = biological target: AAK1 (Homo sapiens, UniProt Q2M2I8); assay: Kinobead competition assay in K562 extract: AAK1
Chain of AAK1 (Q2M2I8 whole entry): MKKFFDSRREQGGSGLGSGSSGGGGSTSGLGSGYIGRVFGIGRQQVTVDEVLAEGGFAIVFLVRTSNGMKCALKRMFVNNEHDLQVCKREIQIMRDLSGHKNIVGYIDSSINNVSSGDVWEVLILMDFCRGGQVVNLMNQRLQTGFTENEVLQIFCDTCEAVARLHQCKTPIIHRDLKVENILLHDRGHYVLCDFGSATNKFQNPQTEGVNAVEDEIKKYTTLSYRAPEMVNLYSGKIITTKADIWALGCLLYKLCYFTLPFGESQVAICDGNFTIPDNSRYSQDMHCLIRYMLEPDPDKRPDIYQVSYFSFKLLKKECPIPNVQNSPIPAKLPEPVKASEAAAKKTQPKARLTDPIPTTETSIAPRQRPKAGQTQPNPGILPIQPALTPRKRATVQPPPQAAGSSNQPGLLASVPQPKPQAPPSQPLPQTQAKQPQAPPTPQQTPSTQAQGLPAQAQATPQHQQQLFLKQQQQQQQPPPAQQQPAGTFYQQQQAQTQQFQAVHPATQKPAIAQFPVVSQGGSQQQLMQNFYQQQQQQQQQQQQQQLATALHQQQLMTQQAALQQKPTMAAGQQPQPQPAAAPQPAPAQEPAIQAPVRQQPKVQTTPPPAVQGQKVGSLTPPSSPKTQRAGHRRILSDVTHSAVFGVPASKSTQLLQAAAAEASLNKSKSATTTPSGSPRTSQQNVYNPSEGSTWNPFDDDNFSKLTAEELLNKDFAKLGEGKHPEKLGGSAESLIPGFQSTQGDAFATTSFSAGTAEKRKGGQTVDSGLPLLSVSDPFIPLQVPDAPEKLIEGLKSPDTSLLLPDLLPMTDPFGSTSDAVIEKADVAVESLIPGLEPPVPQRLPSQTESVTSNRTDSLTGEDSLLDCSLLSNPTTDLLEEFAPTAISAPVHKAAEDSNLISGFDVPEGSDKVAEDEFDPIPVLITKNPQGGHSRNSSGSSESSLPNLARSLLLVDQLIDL
Protocol: Kinobeads were prepared as described [25, 26]. […] Briefly, Kinobeads were washed and equilibrated in lysis buffer (50 mM Tris-Cl, pH 7.4, 0.4% Igepal-CA630, 1.5 mM MgCl2, 5% Glycerol, 150 mM NaCl, 25 mM NaF, 1 mM Na3VO4, 1 mM DTT, and 1 complete EDTA-free protease inhibitor tablet (Roche) per 25 ml). […] Digestion, labeling with TMT isobaric mass tags, peptide fractionation, and mass spectrometric analyses were performed essentially as described [27]. Criteria for protein quantification were: a minimum of 2 sequence assignments matching to unique peptides was required (FDR for quantified proteins <<0.1%), Mascot ion score > 15, signal to background ratio of the precursor ion > 4, signal to interference > 0.5 [28]. Reporter ion intensities were multiplied by ion accumulation time, yielding an area value proportional to the number of reporter ions present in the mass analyzer. Peptide fold changes were corrected for isotope purity as described and adjusted for interference caused by co-eluting nearly isobaric peaks as estimated by the signal-to-interference measure [29]. Protein quantification was achieved using a sum-based bootstrap algorithm [30]. Apparent dissociation constants were determined by taking into account the protein depletion by the beads as described [27].
Kinobeads were incubated with K562 cell extract either in the presence of vehicle (DMSO) or TCAMS compound, respectively (20 μM-0.03 μM). Protein kinases captured by the beads (140–150 kinases per experiment) were quantified following tryptic digestion, isobaric peptide tagging, and LC-MS/MS analysis. Kinases were identified as potential targets by virtue of their reduced capture in the presence of excess TCAMS compounds. Apparent dissociation constants (Kd’s) were calculated from the extent to which capture of each kinase was reduced at each compound concentration.

[11] = biological target: MAP2K3 (Homo sapiens, UniProt P46734); assay: biochemical
[12] = biological target: STK3 (Homo sapiens, UniProt Q13188); assay: biochemical
Chain of STK3 (Q13188 whole entry): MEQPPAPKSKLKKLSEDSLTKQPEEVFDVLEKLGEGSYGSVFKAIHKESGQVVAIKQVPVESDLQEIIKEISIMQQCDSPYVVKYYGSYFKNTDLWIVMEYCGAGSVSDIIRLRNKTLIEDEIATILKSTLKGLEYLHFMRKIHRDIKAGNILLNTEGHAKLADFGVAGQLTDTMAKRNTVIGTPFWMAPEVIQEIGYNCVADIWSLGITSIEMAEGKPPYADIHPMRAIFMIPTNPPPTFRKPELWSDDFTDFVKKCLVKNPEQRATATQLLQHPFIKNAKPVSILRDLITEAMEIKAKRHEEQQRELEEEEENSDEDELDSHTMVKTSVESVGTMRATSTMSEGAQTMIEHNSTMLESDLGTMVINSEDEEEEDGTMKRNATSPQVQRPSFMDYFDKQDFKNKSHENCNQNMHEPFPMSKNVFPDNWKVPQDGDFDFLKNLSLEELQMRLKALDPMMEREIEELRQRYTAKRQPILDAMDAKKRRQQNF

[13] = biological target: LIMK2 (Homo sapiens, UniProt P53671); assay: biochemical
Chain of LIMK2 (P53671 whole entry): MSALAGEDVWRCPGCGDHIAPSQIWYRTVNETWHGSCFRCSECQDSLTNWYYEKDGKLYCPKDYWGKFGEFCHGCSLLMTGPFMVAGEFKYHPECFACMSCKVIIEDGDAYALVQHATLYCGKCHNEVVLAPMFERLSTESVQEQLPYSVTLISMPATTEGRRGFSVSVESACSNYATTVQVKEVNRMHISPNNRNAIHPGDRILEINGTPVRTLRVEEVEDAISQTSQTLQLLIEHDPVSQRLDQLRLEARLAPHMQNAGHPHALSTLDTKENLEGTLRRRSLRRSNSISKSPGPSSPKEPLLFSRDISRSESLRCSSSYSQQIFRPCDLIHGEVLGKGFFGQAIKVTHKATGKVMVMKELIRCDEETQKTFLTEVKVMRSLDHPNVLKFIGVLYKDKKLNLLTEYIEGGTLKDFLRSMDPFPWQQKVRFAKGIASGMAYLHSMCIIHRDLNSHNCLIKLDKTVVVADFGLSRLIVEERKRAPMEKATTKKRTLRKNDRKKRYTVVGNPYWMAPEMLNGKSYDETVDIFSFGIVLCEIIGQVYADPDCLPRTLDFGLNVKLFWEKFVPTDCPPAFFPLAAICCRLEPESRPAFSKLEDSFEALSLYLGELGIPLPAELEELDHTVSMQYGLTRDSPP

[14] = biological target: CAMK2A (Homo sapiens, UniProt Q9UQM7); assay: biochemical
Chain of CAMK2A (Q9UQM7 whole entry): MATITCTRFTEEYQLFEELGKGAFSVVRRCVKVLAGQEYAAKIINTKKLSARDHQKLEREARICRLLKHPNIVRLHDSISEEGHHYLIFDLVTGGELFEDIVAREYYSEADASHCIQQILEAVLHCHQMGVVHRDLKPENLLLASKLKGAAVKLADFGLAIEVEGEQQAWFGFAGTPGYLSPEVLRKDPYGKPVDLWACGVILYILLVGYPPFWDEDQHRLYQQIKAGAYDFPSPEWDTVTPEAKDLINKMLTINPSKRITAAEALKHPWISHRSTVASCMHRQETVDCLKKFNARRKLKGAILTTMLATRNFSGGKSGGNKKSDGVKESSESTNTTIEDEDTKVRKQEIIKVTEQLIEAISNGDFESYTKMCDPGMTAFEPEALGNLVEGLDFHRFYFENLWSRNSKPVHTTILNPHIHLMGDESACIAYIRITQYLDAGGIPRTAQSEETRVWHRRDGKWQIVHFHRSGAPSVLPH

[15] = system: P. falciparum DD2; parameters: method as in ChEMBL; settings: ref ChEMBL; cited from earlier work
[16] = AAK1, K-562 extract, conc. series 20.0-0.0uM, channel assignment not given

Chain of CDK6 (Q00534 whole entry): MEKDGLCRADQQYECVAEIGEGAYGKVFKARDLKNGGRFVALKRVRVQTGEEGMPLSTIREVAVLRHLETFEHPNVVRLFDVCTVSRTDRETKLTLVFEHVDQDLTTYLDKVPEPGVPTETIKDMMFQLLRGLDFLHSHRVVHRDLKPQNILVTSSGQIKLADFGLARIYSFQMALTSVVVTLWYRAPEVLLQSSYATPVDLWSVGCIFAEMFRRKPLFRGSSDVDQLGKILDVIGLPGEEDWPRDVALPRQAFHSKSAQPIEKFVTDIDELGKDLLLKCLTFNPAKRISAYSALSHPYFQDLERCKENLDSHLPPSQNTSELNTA

| Compound | IC50 [3] | IC50 [4] | IC50 [5] | IC50 [6] | IC50 [7] | IC50 [8] | IC50 [9] | IC50 [11] | IC50 [12] | IC50 [13] | IC50 [14] | also measured |
| --- | --- | --- | --- | --- | --- | --- | --- | --- | --- | --- | --- | --- |
| CN1CCN(c2ccc(Nc3ncc(C#N)c(Nc4ccccc4C(N)=O)n3)cc2)CC1.Cl [TCMDC-134116] | 160 nM and 180 nM | 4.9 µM and 6.7 µM | 89 nM and 120 nM | 150 nM | 260 nM | 970 nM and 1000 nM | 170 nM | – | – | – | – | IC50 [1]: 130 nM; PCT_INHB_DD2 [2]: 93% |
| Cl.NCC1(c2nc(-c3ccc(Cl)c(O)c3)c(-c3ccncc3)[nH]2)CCCCC1 [TCMDC-141154] | > 20000 nM | – | > 20000 nM | > 20000 nM | > 20000 nM | > 20000 nM | – | > 20 µM | > 20 µM | > 20 µM | > 20 µM | IC50 [10]: > 20 µM; abundance relative to vehicle TMT126 ([10]; AAK1, K-562 extract, conc. series 20.0, 4.0, 0.8, 0.16, 0.032, 0.0uM, channel assignment not given): 0.86; abundance relative to vehicle TMT127L [10, 16]: 0.83; abundance relative to vehicle TMT128H [10, 16]: 0.89; abundance relative to vehicle TMT129L [10, 16]: 1.02; abundance relative to vehicle TMT130H [10, 16]: 1.01; Hill ([10]; AAK1, kinobead competition curve): 0.56 |
| CN(C)CC(O)COc1ccc(Nc2ncc([N+](=O)[O-])c(Nc3ccccc3O)n2)cc1.O=C(O)C(F)(F)F (centres unmarked) [TCMDC-141399] | – | > 20 µM | – | – | – | – | > 20000 nM | > 20 µM | > 20 µM | > 20 µM | > 20 µM | PCT_INHB_DD2 [15]: 20 |
